What was measured:
Format in all cases: in vivo, human
[1] = Example 5: semaglutide (oral) and 15-hour fasting; details: weeks 1-4: 1/2/3.5/5 mg, without exercise or caloric restriction
From the text: Patients are subject to a combination HMT/HNT treatment protocol as described in Table 9 below. […] [table]

[2] = Example 3: semaglutide (oral) and 18-hour fasting; details: weeks 1-4: .25/.50/.50/1 mg, without exercise or caloric restriction
From the text: Patients are subject to a combination HMT/HNT treatment protocol as described in Table 7 below. […] [table]

[3] = Example 6: semaglutide (oral) and 18-hour fasting; details: weeks 1-4: 1/2/3.5/5 mg, without exercise or caloric restriction
From the text: Patients are subject to a combination HMT/HNT treatment protocol as described in Table 10 below. […] [table]

[4] = Example 4: semaglutide (oral) and One-Meal-A-Day; details: One-Meal-A-Day; weeks 1-4: 1/2/3.5/5 mg; without exercise or caloric restriction
From the text: Patients are subject to a combination HMT/HNT treatment protocol as described in Table 8 below. […] [table]

[5] = Example 14: dulaglutide and 15-hour fasting; details: weeks 1-4: 0.2/0.375/0.375/0.6 mg, without exercise or caloric restriction
From the text: Patients are subject to a combination HMT/HNT treatment protocol as described in Table 18 below. […] [table]

[6] = Example 13: dulaglutide and One-Meal-A-Day; details: One-Meal-A-Day; weeks 1-4: 0.2/0.375/0.375/0.6 mg; without exercise or caloric restriction
From the text: Patients are subject to a combination HMT/HNT treatment protocol as described in Table 17 below. […] [table]

[7] = Example 15: dulaglutide and 18-hour fasting; details: weeks 1-4: 0.2/0.375/0.375/0.6 mg, without exercise or caloric restriction
From the text: Patients are subject to a combination HMT/HNT treatment protocol as described in Table 19 below. […] [table]

[8] = Example 1: clinical study combining semaglutide (injection) and fasting (HMT/HNT), Patient 1
From the text: Patient 1 was subject to a combination HMT/HNT treatment protocol as described below.

[9] = Example 2: semaglutide (injection) and 15-hour fasting; details: weeks 1-4: .25/.50/.50/1 mg, without exercise or caloric restriction
From the text: Patients are subject to a combination HMT/HNT treatment protocol as described in Table 6 below. […] [table]

[10] = Example 16: liraglutide and One-Meal-A-Day; details: One-Meal-A-Day; weeks 1-4: 0.75/1.5/1.5/2.25 mg; without exercise or caloric restriction
From the text: Patients are subject to a combination HMT/HNT treatment protocol as described in Table 20 below. […] [table]

[11] = Example 17: liraglutide and 15-hour fasting; details: weeks 1-4: 0.75/1.5/2.25/2.25 mg, without exercise or caloric restriction
From the text: Patients are subject to a combination HMT/HNT treatment protocol as described in Table 21 below. […] [table]

[12] = Example 18: liraglutide and 18-hour fasting; details: weeks 1-4: 0.75/1.5/1.5/2.25 mg, without exercise or caloric restriction
From the text: Patients are subject to a combination HMT/HNT treatment protocol as described in Table 22 below. […] [table]

## Semaglutide [Semaglutide (oral)]
[1]
  Therapeutic effects (e.g. weight loss): Desirable therapeutics effects (e.g. weigh loss) are achieved
[2]
  Therapeutic effects (e.g. weight loss): Desirable therapeutics effects (e.g. weigh loss) are achieved
[3]
  Therapeutic effects (e.g. weight loss): Desirable therapeutics effects (e.g. weigh loss) are achieved
[4]
  Therapeutic effects (e.g. weight loss): Desirable therapeutics effects (e.g. weigh loss) are achieved

## Dulaglutide
[5]
  Therapeutic effects (e.g. weight loss): Desirable therapeutics effects (e.g. weigh loss) are achieved
[6]
  Therapeutic effects (e.g. weight loss): Desirable therapeutics effects (e.g. weigh loss) are achieved
[7]
  Therapeutic effects (e.g. weight loss): Desirable therapeutics effects (e.g. weigh loss) are achieved

## Semaglutide
[8]; in 30 days, combination HMT/HNT
  Weight lost: 30 pounds
[8]; starting weight 282 lbs, 30 days, weeks 1-4: .25/.50/.50/1 mg, One-Meal-A-Day
  Bodyweight reduction: −30 lbs
[9]
  Therapeutic effects (e.g. weight loss): Desirable therapeutics effects (e.g. weigh loss) are achieved

## CCCCCCCCCCCCCCCC(=O)N[C@@H](CCC(=O)NCCCC[C@H](NC(=O)[C@H](C)NC(=O)[C@H](C)NC(=O)[C@H](CCC(N)=O)NC(=O)CNC(=O)[C@H](CCC(=O)O)NC(=O)[C@H](CC(C)C)NC(=O)[C@H](Cc1ccc(O)cc1)NC(=O)[C@H](CO)NC(=O)[C@H](CO)NC(=O)[C@@H](NC(=O)[C@H](CC(=O)O)NC(=O)[C@H](CO)NC(=O)[C@@H](NC(=O)[C@H](Cc1ccccc1)NC(=O)[C@@H](NC(=O)CNC(=O)[C@H](CCC(=O)O)NC(=O)[C@H](C)NC(=O)[C@@H](N)Cc1cnc[nH]1)[C@@H](C)O)[C@@H](C)O)C(C)C)C(=O)N[C@@H](CCC(=O)O)C(=O)N[C@@H](Cc1ccccc1)C(=O)N[C@H](C(=O)N[C@@H](C)C(=O)N[C@@H](Cc1c[nH]c2ccccc12)C(=O)N[C@@H](CC(C)C)C(=O)N[C@H](C(=O)N[C@@H](CCCNC(=N)N)C(=O)NCC(=O)N[C@@H](CCCNC(=N)N)C(=O)NCC(=O)O)C(C)C)[C@@H](C)CC)C(=O)O [Liraglutide]
[10]
  Therapeutic effects (e.g. weight loss): Desirable therapeutics effects (e.g. weigh loss) are achieved
[11]
  Therapeutic effects (e.g. weight loss): Desirable therapeutics effects (e.g. weigh loss) are achieved
[12]
  Therapeutic effects (e.g. weight loss): Desirable therapeutics effects (e.g. weigh loss) are achieved
